Data: patent publication US20240285705A1, “AQUEOUS EXTRACTION OF CANNABINOIDS” (Curaleaf, Inc., priority 2023, published 2024)

Assay: Solubilization of cannabinoids in NaOH and KOH solutions
Type: physicochemical
Description: Concentration Selection: NaOH and KOH solutions having concentrations ranging from 0M to 2M were prepared and tested for their ability to solubilize D9THCA and CBDA. […] All forms of cannabinoids were extracted using NaOH and KOH. It was also determined that neutral cannabinoids were removed from the plant to a much less extent during base extraction.

| Structure (SMILES) | Solubility (NaOH and KOH solutions, concentrations ranging from 0M to 2M) | Degradation by strong base (NaOH/KOH solution above 0.3M) |
| --- | --- | --- |
| C=C(C)[C@@H]1CCC(C)=C[C@H]1c1c(O)cc(CCCCC)c(C(=O)O)c1O [CBDA, cannabidolic acid] | higher than D9THC | – |
| CCCCCc1cc2c(c(O)c1C(=O)O)[C@@H]1C=C(C)CC[C@H]1C(C)(C)O2 [D9THCA, tetrahydrocannabinolic acid] | – | begins to noticeable degrade |
